Reference: patent US11415579B2, “Assay for measuring a rate of reaction between a target and a ligand candidate” (Imperial College Innovations Ltd., priority 2016, dated 2022)

How the values were obtained:
[1] = Kinetic thiol consumption assay with model thiol glutathione; type: physicochemical; set-up: Rate constant with glutathione (k(GSH)): unit not given here; settings: for Rate constant with glutathione (k(GSH)): 500 μM ligand, 5 μM thiol, phosphate buffer pH 8; for Rate constant with Glutathione: Protein: Glutathione, cysteine position NA, in h-1
Outline: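 First, 5 μM glutathione in degassed phosphate buffer (pH 8) receives immobilized TCEP beads (2% v/v). Then acrylamide is added and plates incubate 1 h at room temperature. Finally, fluorescence (380/470 nm) is normalized and fitted to first-order decay for rate constants.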

[2] = molecular target: T1, human cyclin-dependent kinase 2 (Cdk2) (Homo sapiens, UniProt P24941); assay: Kinetic thiol consumption assay with wild type Cdk2 (C177); type: binding; set-up: key to Rate enhancement, Cdk2 WT: k(Cdk2) divided by k(model thiol); Rate constant with Cdk2 (k(Cdk2)): unit not given here; settings: for Rate constant with Cdk2 (k(Cdk2)): 500 μM ligand, 5 μM thiol, phosphate buffer pH 8; for Rate enhancement, Cdk2 WT: no additional mutations; for Rate constant with Cdk2 WT: Protein: Cdk2, cysteine position WT, in h^-1; for k(Cdk2)/k(Cdk2_mut) rate enhancement: model thiol Cdk2[C177A, F80C, K278C]; for k(Cdk2)/k(GSH) rate enhancement: model thiol glutathione
T1 construct: poly-histidine; made in house; host or cells: E. coli
Outline: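 His-tagged human Cdk2 from E. coli (sole surface cysteine C177) or a model thiol, each 5 μM in degassed phosphate buffer pH 8 with immobilized TCEP, reacted with acrylamides at room temperature. Fluorescence (ex 380/em 470) normalized to DMSO/thiol control over time; first-order rate constants, Cdk2 rate divided by model-thiol rate.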

[3] = molecular target: T2, Cdk2[C177A, F80C, K278C] (Homo sapiens, UniProt P24941, C177A/F80C/K278C); assay: Kinetic thiol consumption assay with mutant Cdk2 as model thiol; type: binding; set-up: unit not given here; settings: 500 μM ligand, 5 μM thiol, phosphate buffer pH 8
T2 construct: poly-histidine; made in house; host or cells: E. coli
Outline: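 Model thiol: His-tagged human Cdk2 C177A/F80C/K278C (two engineered surface cysteines), E. coli-expressed, 5 μM in degassed phosphate buffer pH 8 with immobilized TCEP beads (2% v/v). Fluorescence (ex/em 380/470 nm) followed over time at room temperature, normalized to DMSO/thiol control. First-order decay fit gives rate constants.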

[4] = molecular target: T3, Cdk2(C177A, F80C) (Homo sapiens, UniProt P24941, C177A/F80C); assay: Kinetic thiol consumption assay with Cdk2 mutant F80C, incl. kobs versus concentration (Kd, k2); type: binding; set-up: key to Rate enhancement, Cdk2 F80C: Cdk2 rate constant divided by model-thiol rate constant; settings: additional mutation C177A; for Rate constant with Cdk2 F80C: Protein: Cdk2, cysteine position F80C, in h^-1
T3 construct: poly-histidine; made in house; host or cells: E. coli
Outline: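 His-tagged Cdk2(C177A/F80C) from E. coli or model thiol, 5 μM in degassed phosphate buffer pH 8 with TCEP beads, reacted with acrylamide ligands; fluorescence (ex/em 380/470 nm) normalized to DMSO control and fitted to first-order decay for kobs. Kd and k2 obtained from hyperbolic fit of kobs versus ligand concentration.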

[5] = molecular target: T4, Cdk2(H71C) (C177A) (Homo sapiens, UniProt P24941, C177A/H71C); assay: Kinetic thiol consumption assay with Cdk2 mutant H71C; type: binding; set-up: key to Rate enhancement, Cdk2 H71C: rate constant with Cdk2 ÷ rate constant with model thiol (fold); settings: additional mutation C177A; for Rate constant with Cdk2 H71C: Protein: Cdk2, cysteine position H71C, in h^-1
T4 construct: poly-histidine; made in house; host or cells: E. coli
Outline: (§1)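 His-tagged single-surface-cysteine Cdk2 mutants (C177A background) from E. coli, 5 μM in degassed phosphate buffer pH 8, pre-treated with immobilized TCEP beads. Fluorescence (ex/em 380/470 nm) read after 1 h at room temperature, normalized to DMSO/thiol-only control; first-order decay fits gave rate constants, divided by model-thiol rate for rate enhancement.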

[6] = molecular target: T5, Cdk2(S276C) (C177A) (Homo sapiens, UniProt P24941, C177A/S276C); assay: Kinetic thiol consumption assay with Cdk2 mutant S276C; type: binding; set-up: key to Rate enhancement, Cdk2 S276C: rate constant with Cdk2 ÷ rate constant with model thiol (fold); settings: additional mutation C177A; for Rate constant with Cdk2 S276C: Protein: Cdk2, cysteine position S276C, in h^-1
T5 construct: poly-histidine; made in house; host or cells: E. coli
Outline: as §1

[7] = molecular target: T6, Cdk2(N272C) (C177A) (Homo sapiens, UniProt P24941, C177A/N272C); assay: Kinetic thiol consumption assay with Cdk2 mutant N272C; type: binding; set-up: key to Rate enhancement, Cdk2 N272: rate constant with Cdk2 ÷ rate constant with model thiol (fold); settings: for Rate enhancement, Cdk2 N272: Cdk2 N272, additional mutation C177A; for Rate constant with Cdk2 N272C: Protein: Cdk2, cysteine position N272C, additional mutation C177A, in h^-1
T6 construct: poly-histidine; made in house; host or cells: E. coli
Outline: as §1

[8] = molecular target: T7, Cdk2(T182C) (C177A) (Homo sapiens, UniProt P24941, C177A/T182C); assay: Kinetic thiol consumption assay with Cdk2 mutant T182C; type: binding; set-up: key to Rate enhancement, Cdk2 T182C: rate constant with Cdk2 ÷ rate constant with model thiol (fold); settings: additional mutation C177A; for Rate constant with Cdk2 T182C: Protein: Cdk2, cysteine position T182C, in h^-1
T7 construct: poly-histidine; made in house; host or cells: E. coli
Outline: as §1

[9] = molecular target: T8, Cdk2(R122C) (C177A) (Homo sapiens, UniProt P24941, C177A/R122C); assay: Kinetic thiol consumption assay with Cdk2 mutant R122C; type: binding; set-up: key to Rate enhancement, Cdk2 R122C: rate constant with Cdk2 ÷ rate constant with model thiol (fold); settings: additional mutation C177A; for Rate constant with Cdk2 R122C: Protein: Cdk2, cysteine position R122C, in h-1
T8 construct: poly-histidine; made in house; host or cells: E. coli
Outline: as §1

[10] = molecular target: T9, Cdk2(S181C) (C177A) (Homo sapiens, UniProt P24941, C177A/S181C); assay: Kinetic thiol consumption assay with Cdk2 mutant S181C; type: binding; set-up: key to Rate enhancement, Cdk2 S181C: rate constant with Cdk2 ÷ rate constant with model thiol (fold); settings: additional mutation C177A; for Rate constant with Cdk2 S181C: Protein: Cdk2, cysteine position S181C, in h^-1
T9 construct: poly-histidine; made in house; host or cells: E. coli
Outline: as §1

SMILES | Rate constant with glutathione (k(GSH)) [1] | Rate constant with Glutathione [1] | Rate constant with Cdk2 (k(Cdk2)) [2] | Rate enhancement, Cdk2 WT [2] | Rate constant with Cdk2 WT [2] | k(Cdk2)/k(Cdk2_mut) rate enhancement [2] | k(Cdk2)/k(GSH) rate enhancement [2] | Rate constant with Cdk2[C177A, F80C, K278C] (k(Cdk2_mut)) [3] | Rate enhancement, Cdk2 F80C [4] | Rate constant with Cdk2 F80C [4] | Rate enhancement, Cdk2 H71C [5] | Rate enhancement, Cdk2 S276C [6] | Rate constant with Cdk2 S276C [6] | Rate enhancement, Cdk2 N272 [7] | Rate constant with Cdk2 N272C [7] | Rate enhancement, Cdk2 T182C [8] | Rate constant with Cdk2 T182C [8] | Rate enhancement, Cdk2 R122C [9] | Rate constant with Cdk2 R122C [9] | Rate enhancement, Cdk2 S181C [10] | other results
C=CC(=O)NCCc1c(-c2ccccn2)[nH]c2ccc(F)cc12 [EL-1084] | 0.00286 | 0.004273 | 0.00314 | 1.173 | 0.005012 | 0.5247 | 1.101 | 0.00599 | 1.7587E−11 | 7.515E−14 | 0 | 0.4117 | 0.001759 | 0.608 | 0.002598 | 1.828 | 0.007812 | 0.229 | 0.0009787 | 0.09078 | Rate constant with Cdk2 S181C [10]: 0.0003879
C=CC(=O)Nc1cccc(-c2cc3ccccc3[nH]2)c1 [EL-1098] | 0.01147 | 0.01151 | 0.01063 | 0.9235 | 0.01063 | 0.3049 | 0.9268 | 0.03487 | 0.7203 | 0.008291 | 0.2587 | 1.017 | 0.0117 | 0.8491 | 0.009773 | 2.526 | 0.02907 | 0.5598 | 0.006443 | 0.4335 | Rate constant with Cdk2 H71C [5]: 0.002978; Rate constant with Cdk2 S181C [10]: 0.00499
C=CC(=O)NC(C)c1cc(OC)c(OC)c(OC)c1 (centres unmarked) [EL-1101] | 0.0078 | 0.007427 | 0.00341 | 0.4606 | 0.003421 | 1.51 | 0.4373 | 0.00226 | 0.3417 | 0.002538 | 0.8384 | 0.9981 | 0.007413 | 0.6801 | 0.005051 | 1.305 | 0.009691 | 0.3078 | 0.002286 | 0.396 | Rate constant with Cdk2 H71C [5]: 0.006227; Rate constant with Cdk2 S181C [10]: 0.002941
C=CC(=O)Nc1ccc2nc(C)[nH]c2c1 [EL-1109] | 0.00862 | 0.008572 | 0.00827 | 0.9701 | 0.008316 | 0.8966 | 0.9595 | 0.00922 | 1.94 | 0.01663 | 0.5644 | 0.9188 | 0.007876 | 0.3872 | 0.003319 | 5.286 | 0.04531 | 0.7255 | 0.006219 | 1.588 | Rate constant with Cdk2 H71C [5]: 0.004838; Rate constant with Cdk2 S181C [10]: 0.01361
C=CC(=O)Nc1ccc(C(=O)NC2CCCC2)cc1 [EL-1114] | 0.02997 | 0.03014 | 0.07947 | 2.637 | 0.07947 | 0.3457 | 2.652 | 0.2299 | 9.237 | 0.2784 | 3.388 | 0.7973 | 0.02403 | 0.04599 | 0.001386 | 16.35 | 0.4929 | 0.259 | 0.007805 | 0.3942 | Rate constant with Cdk2 H71C [5]: 0.1021; Rate constant with Cdk2 S181C [10]: 0.01188
C=CC(=O)N1CCN(C(=O)OCC)CC1c1cccs1 (centres unmarked) [EL-1121] | 0.02567 | 0.02567 | 0.01328 | 0.5173 | 0.01328 | 0.854 | 0.5173 | 0.01555 | 0.4897 | 0.01257 | 1.52 | 0.7713 | 0.0198 | 0.5551 | 0.01425 | 1.411 | 0.03623 | 0.2677 | 0.006872 | 1.051 | Rate constant with Cdk2 H71C [5]: 0.03901; Rate constant with Cdk2 S181C [10]: 0.02699
